Biological target: T1, SMARCA2 (Homo sapiens, UniProt P51531)
T1 construct: endogenous in cells; host or cells: HT1080 (CRISPR HiBiT knock-in clone, generated in house)
Test: SMARCA2 HiBiT degradation assay (cellular)
Format: cell-based
Conditions: table head names A549; for DC50: 6 h incubation, HiBiT-tagged SMARCA2, luminescence read-out, read-out: HiBit A549 SMARCA2 IP (nM) 6 h; for Emax: A549, 6 h incubation, Emax = amount of residual protein remaining in the cell following compound treatment

T1 sequence (P51531 whole entry): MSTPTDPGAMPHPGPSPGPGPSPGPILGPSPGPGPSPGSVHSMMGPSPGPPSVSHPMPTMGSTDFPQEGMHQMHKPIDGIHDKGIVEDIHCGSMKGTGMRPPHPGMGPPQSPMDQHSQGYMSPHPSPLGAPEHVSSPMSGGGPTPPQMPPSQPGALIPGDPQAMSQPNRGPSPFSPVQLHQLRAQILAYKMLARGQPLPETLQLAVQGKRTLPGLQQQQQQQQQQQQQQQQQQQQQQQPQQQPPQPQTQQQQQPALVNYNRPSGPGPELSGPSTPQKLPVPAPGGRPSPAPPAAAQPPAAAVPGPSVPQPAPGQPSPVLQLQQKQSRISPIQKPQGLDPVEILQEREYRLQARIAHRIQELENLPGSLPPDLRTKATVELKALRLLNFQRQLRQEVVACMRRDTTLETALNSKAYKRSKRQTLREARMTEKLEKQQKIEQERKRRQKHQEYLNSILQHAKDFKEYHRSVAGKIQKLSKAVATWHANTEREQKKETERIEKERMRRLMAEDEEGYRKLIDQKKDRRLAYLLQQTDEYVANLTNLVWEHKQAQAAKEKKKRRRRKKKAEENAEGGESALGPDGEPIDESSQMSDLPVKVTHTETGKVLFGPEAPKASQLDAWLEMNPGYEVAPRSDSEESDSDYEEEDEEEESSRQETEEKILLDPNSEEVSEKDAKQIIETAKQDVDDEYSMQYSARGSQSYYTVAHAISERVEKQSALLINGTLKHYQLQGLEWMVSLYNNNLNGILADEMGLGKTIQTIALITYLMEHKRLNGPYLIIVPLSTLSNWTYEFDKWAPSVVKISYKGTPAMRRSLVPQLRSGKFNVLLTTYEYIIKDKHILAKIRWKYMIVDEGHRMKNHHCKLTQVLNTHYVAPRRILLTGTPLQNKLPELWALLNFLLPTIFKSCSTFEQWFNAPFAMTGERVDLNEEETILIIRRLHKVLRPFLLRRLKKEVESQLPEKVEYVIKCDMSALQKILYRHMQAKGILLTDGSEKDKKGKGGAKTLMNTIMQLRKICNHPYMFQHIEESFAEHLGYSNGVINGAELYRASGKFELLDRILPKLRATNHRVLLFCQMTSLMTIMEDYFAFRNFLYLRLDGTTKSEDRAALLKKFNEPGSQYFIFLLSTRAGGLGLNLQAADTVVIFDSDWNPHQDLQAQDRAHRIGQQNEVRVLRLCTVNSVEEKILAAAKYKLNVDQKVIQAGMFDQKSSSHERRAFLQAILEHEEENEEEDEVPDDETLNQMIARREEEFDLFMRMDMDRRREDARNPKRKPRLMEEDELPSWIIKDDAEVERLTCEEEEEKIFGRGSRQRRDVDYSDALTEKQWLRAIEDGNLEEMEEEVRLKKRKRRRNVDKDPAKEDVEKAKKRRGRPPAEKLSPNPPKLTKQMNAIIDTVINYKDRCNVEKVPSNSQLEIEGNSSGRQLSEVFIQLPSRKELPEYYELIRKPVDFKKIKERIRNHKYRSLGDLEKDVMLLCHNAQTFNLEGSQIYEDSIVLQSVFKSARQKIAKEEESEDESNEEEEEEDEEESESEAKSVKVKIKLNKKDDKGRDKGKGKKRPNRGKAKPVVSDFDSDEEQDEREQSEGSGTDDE

Row | Structure (SMILES) | DC50 [nM] | Emax [%]
1 | Nc1nnc(-c2ccccc2O)cc1N1CC(Oc2cccc(CN3CCN(C(=O)CCC4CCN(c5ccc6c(c5)C(=O)N(C5CCC(=O)NC5=O)C6=O)CC4)CC3)c2)C1 (racemic) [Example 154, rac-5-[4-[3-[4-[[3-[1-[3-amino-6-(2-hydroxyphenyl)pyridazin-4-yl]azetidin-3-yl]oxyphenyl]methyl]piperazin-1-yl]-3-oxo-propyl]-1-piperidyl]-2-(2,6-dioxo-3-piperidyl)isoindoline-1,3-dione] | 12 | 16
2 | Nc1nnc(-c2ccccc2O)cc1N1CCC(C(=O)N2CCC(C(=O)N3CCC(c4ccc(C5CCC(=O)NC5=O)cc4)CC3)CC2)(c2ccccc2)CC1 (centres unmarked) [Example 175, 3-(4-(1-(1-(1-(3-amino-6-(2-hydroxyphenyl)pyridazin-4-yl)-4-phenylpiperidine-4-carbonyl)piperidine-4-carbonyl)piperidin-4-yl)phenyl)piperidine-2,6-dione] | 42 | 47
3 | Nc1nnc(-c2ccccc2O)cc1OC1CCCN(c2ccc(N3CCN(CCCCCCCCCn4cc(CCCNc5cccc6c5C(=O)N(C5CCC(=O)NC5=O)C6=O)nn4)CC3)cc2)C1 (centres unmarked) [Example 109, 4-[3-[1-[9-[4-[4-[3-[3-amino-6-(2-hydroxyphenyl)pyridazin-4-yl]oxy-1-piperidyl]phenyl]piperazin-1-yl]nonyl]triazol-4-yl]propylamino]-2-(2,6-dioxo-3-piperidyl)isoindoline-1,3-dione] | 103 | 29
4 | Nc1nnc(-c2ccccc2O)cc1N1CCC(C(=O)N2CCN(C(=O)C3CCN(c4ccc5c(c4)C(=O)N(C4CCC(=O)NC4=O)C5=O)CC3)CC2)(c2ccccc2)CC1 (centres unmarked) [Example 120, 5-(4-(4-(1-(3-amino-6-(2-hydroxyphenyl)pyridazin-4-yl)-4-phenylpiperidine-4-carbonyl)piperazine-1-carbonyl)piperidin-1-yl)-2-(2,6-dioxopiperidin-3-yl)isoindoline-1,3-dione] | 31 | 28
5 | Nc1nnc(-c2ccccc2O)cc1OC1CCCN(c2ccc(OCCN3CCN(C(=O)CCCCCCCCCCCCC(=O)N4CCN(c5ccc(NC6CCC(=O)NC6=O)cc5)CC4)CC3)cc2)C1 (centres unmarked) [Example 25, 3-[4-[4-[14-[4-[2-[4-[3-[3-amino-6-(2-hydroxyphenyl)pyridazin-4-yl]oxy-1-piperidyl]phenoxy]ethyl]piperazin-1-yl]-14-oxo-tetradecanoyl]piperazin-1-yl]anilino]piperidine-2,6-dione] | 614 | 59
6 | Nc1nnc(-c2ccccc2O)cc1N1CC2CCC(C1)N2c1cccc(OCCN2CCN(C(=O)CN3CCC(c4ccc(OC5CCC(=O)NC5=O)cn4)CC3)CC2)c1 (centres unmarked) [Example 198, 3-[[6-[1-[2-[4-[2-[3-[3-[3-amino-6-(2-hydroxyphenyl)pyridazin-4-yl]-3,8-diazabicyclo[3.2.1]octan-8-yl]phenoxy]ethyl]piperazin-1-yl]-2-oxo-ethyl]-4-piperidyl]-3-pyridyl]oxy]piperidine-2,6-dione] | 277 | 68
7 | Nc1nnc(-c2ccccc2O)cc1N1CC2CCC(C1)N2c1cccc(CN2CCC(C(=O)NC3CCN(c4ccc5c(c4)C(=O)N(C4CCC(=O)NC4=O)C5=O)CC3)CC2)c1 (racemic) [Example 106, rac-1-[[3-[3-[3-amino-6-(2-hydroxyphenyl)pyridazin-4-yl]-3,8-diazabicyclo[3.2.1]octan-8-yl]phenyl]methyl]-N-[1-[2-(2,6-dioxo-3-piperidyl)-1,3-dioxo-isoindolin-5-yl]-4-piperidyl]piperidine-4-carboxamide] | 23 | 26
8 | Nc1nnc(-c2ccccc2O)cc1N1CC(Oc2cccc(CN3CCN(C(=O)CCCCCCNc4cccc5c4C(=O)N(C4CCC(=O)NC4=O)C5=O)CC3)c2)C1 (centres unmarked) [Example 30, 4-[[7-[4-[[3-[1-[3-amino-6-(2-hydroxyphenyl)pyridazin-4-yl]azetidin-3-yl]oxyphenyl]methyl]piperazin-1-yl]-7-oxo-heptyl]amino]-2-(2,6-dioxo-3-piperidyl)isoindoline-1,3-dione] | 92 | 63
9 | CC(C)(Nc1cccc2c1C(=O)N(C1CCC(=O)NC1=O)C2=O)c1cn(CCCCCCCCCN2CCN(c3ccc(N4CCCC(Oc5cc(-c6ccccc6O)nnc5N)C4)cc3)CC2)nn1 (centres unmarked) [Example 88, 4-[[1-[1-[9-[4-[4-[3-[3-amino-6-(2-hydroxyphenyl)pyridazin-4-yl]oxy-1-piperidyl]phenyl]piperazin-1-yl]nonyl]triazol-4-yl]-1-methyl-ethyl]amino]-2-(2,6-dioxo-3-piperidyl)isoindoline-1,3-dione] | 55 | 37
10 | Nc1nnc(-c2ccccc2O)cc1N1CCC(CNC(=O)COc2cccc3c2C(=O)N(C2CCC(=O)NC2=O)C3=O)(c2ccccc2)CC1 (centres unmarked) [Example 72, N-[[1-[3-amino-6-(2-hydroxyphenyl)pyridazin-4-yl]-4-phenyl-4-piperidyl]methyl]-2-[2-(2,6-dioxo-3-piperidyl)-1,3-dioxo-isoindolin-4-yl]oxy-acetamide] | 273 | 62
11 | Nc1nnc(-c2cc(F)ccc2O)cc1N1CCC(CNC(=O)CCCN2CCC(c3ccc(OC4CCC(=O)NC4=O)cc3)CC2)(c2ccccc2)CC1 (centres unmarked) [Example 183, N-[[1-[3-amino-6-(5-fluoro-2-hydroxy-phenyl)pyridazin-4-yl]-4-phenyl-4-piperidyl]methyl]-4-[4-[4-[(2,6-dioxo-3-piperidyl)oxy]phenyl]-1-piperidyl]butanamide] | 99 | 37
12 | CN(C(=O)C1CCN(Cc2cccc(N3C4CCC3CN(c3cc(-c5ccccc5O)nnc3N)C4)c2)CC1)C1CN(c2ccc3c(c2)C(=O)N(C2CCC(=O)NC2=O)C3=O)C1 (racemic) [Example 170, rac-1-[[3-[3-[3-amino-6-(2-hydroxyphenyl)pyridazin-4-yl]-3,8-diazabicyclo[3.2.1]octan-8-yl]phenyl]methyl]-N-[1-[2-(2,6-dioxo-3-piperidyl)-1,3-dioxo-isoindolin-5-yl]azetidin-3-yl]-N-methyl-piperidine-4-carboxamide] | 18 | 31
13 | Cc1c(C(=O)N2CCN(C(=O)CCC3CCN(c4ccc5c(c4)C(=O)N(C4CCC(=O)NC4=O)C5=O)CC3)CC2)cccc1N1C2CCC1CN(c1cc(-c3ccccc3O)nnc1N)C2 (racemic) [Example 117, rac-5-[4-[3-[4-[3-[3-[3-amino-6-(2-hydroxyphenyl)pyridazin-4-yl]-3,8-diazabicyclo[3.2.1]octan-8-yl]-2-methyl-benzoyl]piperazin-1-yl]-3-oxo-propyl]-1-piperidyl]-2-(2,6-dioxo-3-piperidyl)isoindoline-1,3-dione] | 144 | 50
14 | Nc1nnc(-c2ccccc2O)cc1N1CCN(c2cccc(OCCN3CCN(C(=O)C4CCN(c5ccc6c(c5)C(=O)N(C5CCC(=O)NC5=O)C6=O)CC4)CC3)c2)C2(CC2)C1 (centres unmarked) [Example 84, 5-(4-(4-(2-(3-(7-(3-amino-6-(2-hydroxyphenyl)pyridazin-4-yl)-4,7-diazaspiro[2.5]octan-4-yl)phenoxy)ethyl)piperazine-1-carbonyl)piperidin-1-yl)-2-(2,6-dioxopiperidin-3-yl)isoindoline-1,3-dione] | 17 | 26
15 | Nc1nnc(-c2ccccc2O)cc1N1CC2CCC(C1)N2c1cccc(OCCN2CCN(CCCOC3CCN(c4ccc5c(c4)C(=O)N(C4CCC(=O)NC4=O)C5=O)CC3)CC2)c1 (racemic) [Example 36, rac-5-[4-[3-[4-[2-[3-[3-[3-amino-6-(2-hydroxyphenyl)pyridazin-4-yl]-3,8-diazabicyclo[3.2.1]octan-8-yl]phenoxy]ethyl]piperazin-1-yl]propoxy]-1-piperidyl]-2-(2,6-dioxo-3-piperidyl)isoindoline-1,3-dione] | 16 | 27
16 | Nc1nnc(-c2ccccc2O)cc1OC1CCCN(c2ccc(N3CCN(C(=O)CCCCCCCCN4CCN(c5ccc6c(c5)C(=O)N(C5CCC(=O)NC5=O)C6=O)CC4)CC3)cc2)C1 (centres unmarked) [Example 26, 5-[4-[9-[4-[4-[3-[3-amino-6-(2-hydroxyphenyl)pyridazin-4-yl]oxy-1-piperidyl]phenyl]piperazin-1-yl]-9-oxo-nonyl]piperazin-1-yl]-2-(2,6-dioxo-3-piperidyl)isoindoline-1,3-dione] | 164 | 63
17 | Nc1nnc(-c2ccccc2O)cc1N1CCC(C(=O)N2CC3(CCN(C(=O)C4CCN(c5ccc6c(c5)C(=O)N(C5CCC(=O)NC5=O)C6=O)CC4)CC3)C2)(c2ccccc2)CC1 (centres unmarked) [Example 163, 5-(4-(2-(1-(3-amino-6-(2-hydroxyphenyl)pyridazin-4-yl)-4-phenylpiperidine-4-carbonyl)-2,7-diazaspiro[3.5]nonane-7-carbonyl)piperidin-1-yl)-2-(2,6-dioxopiperidin-3-yl)isoindoline-1,3-dione] | 22 | 33
18 | Nc1nnc(-c2ccccc2O)cc1N1CC2CCC(C1)N2c1cccc(CN2CCC(C(=O)N3CCC(Oc4ccc5c(c4)C(=O)N(C4CCC(=O)NC4=O)C5=O)CC3)CC2)c1 (racemic) [Example 96, rac-5-[[1-[1-[[3-[3-[3-amino-6-(2-hydroxyphenyl)pyridazin-4-yl]-3,8-diazabicyclo[3.2.1]octan-8-yl]phenyl]methyl]piperidine-4-carbonyl]-4-piperidyl]oxy]-2-(2,6-dioxo-3-piperidyl)isoindoline-1,3-dione] | 7 | 27
19 | Nc1nnc(-c2ccccc2O)cc1N1CC2CCC(C1)N2c1cccc(OCCN2CCN(CCCC3CCN(c4ccc5c(c4)C(=O)N(C4CCC(=O)NC4=O)C5=O)CC3)CC2)c1 (racemic) [Example 143, rac-5-[4-[3-[4-[2-[3-[3-[3-amino-6-(2-hydroxyphenyl)pyridazin-4-yl]-3,8-diazabicyclo[3.2.1]octan-8-yl]phenoxy]ethyl]piperazin-1-yl]propyl]-1-piperidyl]-2-(2,6-dioxo-3-piperidyl)isoindoline-1,3-dione] | 2 | 8

From patent US20230024096A1, “BIFUNCTIONAL COMPOUNDS FOR THE TREATMENT OF CANCER” (Hoffmann-La Roche Inc., priority 2019, published 2023)
